Source: patent publication US10179143B2, “Anti-viral azide containing compounds” (LIFE TECHNOLOGIES CORPORATION, priority 2010, dated 2019)

Experiments:
[1] = tested on: Nuclear-GFP BacMam 2.0 Virus; assay: Infectivity of PTM analog-labeled Nuclear-GFP BacMam 2.0 virus in U2-OS cells (nuclear-GFP expression); format: cell-based, baculovirus; settings: BacMam virus labeled in Sf9 insect cells with 50 μM analog for 4 days; 20 or 50 uL virus on U2-OS cells overnight; FIG. 5
Source text: Inhibition of insect cell baculovirus infectivity with azido fatty acid analogs: The BacMam system uses a modified insect cell virus (baculovirus) as a vehicle to efficiently deliver and express genes in mammalian cells. A Nuclear-GFP BacMam 2.0 expression system (Invitrogen, C10602) was used as a model to determine if PTM analog labeling of the virus would affect mammalian cell infectivity. Viruses were labeled with various PTM analogs and used to infect mammalian cells. Infectivity was determined by the expression of nuclear-GFP, as viral entry into the cell is required for expression of GFP protein. […]
Characterization of BacMam virus production: To verify, quantitate, and normalize the amount of enriched viruses obtained from insect cell supernatants, samples of each virus were lysed in SDS sample preparation buffer (SPB), sonicated with a probe tip sonicator, and heated at 90C to completely dissolve the viral proteins. Viral protein concentrations of the lysates were then determined. […]
Mammalian cell infection protocol: To determine if the PTM analog-labeled viruses retain the ability to infect mammalian cells, 50,000 U2-OS cells (human osteosarcoma cell line) were plated onto a 6 well-chamber glass bottom plate. […] The following day cells were imaged on AMG EVOS fluorescence microscope at 10× or 20× magnification using both white light and GFP filters (FIG. 5). […]

HIV = assay: Luciferase reporter assay of infectivity of azide-labeled HIV on TZM/BI reporter cells; format: cell-based, HIVNL4-3; settings: virus produced in CEMx174 cells spiked with the compound (fatty acids 50-100 μM, sugars 20-40 μM); normalized to p24; 12 hours on TZM/BI; single cycle replication system; FIGS. 3 and 4
Description: CEMx174 cells were transfected with HIVNL4-3 in a T-150 flask and the virus production was monitored by reverse transcriptase activity until peak virus production occurred (usually 7 to 9 days post transfection). Prior to transfection, the CEMx174 cells were spiked with the following azide-modified biomolecules: 15-azidopentadecanoic acid (50-100 μM), 12-azidododecanoic acid (50-100 μM), tetraacetylated N-azidoacetylgalactosamine (20-40 μM), and tetraacetylated N-azidoacetyl-D-mannosamine (20-40 μM).
Labeled virus was also obtained from the transfected cells. More specifically, virus-containing supernatants were collected and virus was purified through 20% sucrose as previously described (Graham, D.R. et al., Proteomics 2008, 8:4919-30). The purified virus was then mixed with the CLICK-IT® detection reagent, tetramethylrhodamine (TAMRA) alkyne and the CLICK-IT® Protein Reaction Buffer Kit (Invitrogen, Carlsbad, Calif.). Virus samples were run on a one-dimensional gel to reveal azide-labeled viral proteins (FIG. 2). […]
To examine the effect of the azide-modified biomolecules on the innate biology of the virus, the azide-labeled virus from the transfected cells was isolated and tested in cell infection studies. […] Viral infectivity was determined by measuring cellular luciferase activities with two different luciferase reagents.

Row | Compound | nuclear-GFP expression in U2-OS cells (viral entry) [1] | impact on the infectivity of the virus (cellular luciferase activities) (HIV)
1 | [N-]=[N+]=NCCCCCCCCCCCC(=O)O [12-azidododecanoic acid] | no nuclear-GFP expression | profound impact on the infectivity of the virus
2 | [N-]=[N+]=NCCCCCCCCCCCCCCC(=O)O [15-azidopentadecanoic acid] | no nuclear-GFP expression | 
